Measured values: patent US4439426A, “Semisynthetic macrolidic antibiotics, intermediate compounds for their preparation and related pharmaceutical compositions containing them” (priority 1981, dated 1984)
In brackets after ≈: the same amount, converted by molar mass.

Assays:
[1] = tested on: Corynebacterium diphteriae LRP 24; assay: Minimum bactericidal concentration (MBC); format: cell-based; conditions: Corynebacterium, LRP24, read-out: Minimum bactericidal concentration (MBC)
Text: (§1) the bacterial power, expressed as the minimum bactericidal power (MBC) against some Gram positive aerobic stocks (table 5).

[2] = tested on: Staphylococcus aureus ATCC 6538 P LRP 39; assay: Minimum bactericidal concentration (MBC); format: cell-based; conditions: Staphylococcus aureus, ATCC6538, read-out: Minimum bactericidal concentration (MBC)
Text: as §1

[3] = tested on: Streptococcus pyogenes ATCC 8668 LRP 34; assay: Minimum bactericidal concentration (MBC); format: cell-based; conditions: Streptococcus pyogenes, ATCC8668, read-out: Minimum bactericidal concentration (MBC)
Text: as §1

[4] = tested on: Streptococcus faecalis subs. zymogenes LRP 61; assay: Minimum bactericidal concentration (MBC); format: cell-based; conditions: Enterococcus faecalis, read-out: Minimum bactericidal concentration (MBC)
Text: as §1

[5] = tested on: Streptococcus pneumoniae ATCC 6303 LRP 35; assay: Minimum bactericidal concentration (MBC); format: cell-based; conditions: Streptococcus pneumoniae, ATCC6303, read-out: Minimum bactericidal concentration (MBC)
Text: as §1

[6] = tested on: Klelsiella pneumoniae LRP 54; assay: Bacteriostatic power in solid medium (MIC); format: cell-based; conditions: read-out: Minimum inhibiting concentration
Summary of the method: (§2)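 Values are minimum inhibiting concentrations, taken as the measure of bacteriostatic power against both aerobic and anaerobic strains of either Gram type.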

[7] = tested on: Staphylococcus aureus ATCC 14154 LRP 78; assay: Bacteriostatic power in solid medium (MIC); format: cell-based; conditions: Staphylococcus aureus, ATCC14154, read-out: Minimum inhibiting concentration
Summary of the method: as §2

[8] = tested on: Streptococcus pneumoniae ATCC 6303 LRP 53; assay: Bacteriostatic power in solid medium (MIC); format: cell-based; conditions: Streptococcus pneumoniae, ATCC6303, read-out: Minimum inhibiting concentration
Summary of the method: as §2

[9] = tested on: Streptococcus pyogenes ATCC 8668 LRP 197; assay: Bacteriostatic power in solid medium (MIC); format: cell-based; conditions: Streptococcus pyogenes, ATCC8668, read-out: Minimum inhibiting concentration
Summary of the method: as §2

[10] = tested on: Micrococcus luteus ATCC 15957 LRP 193; assay: Bacteriostatic power in solid medium (MIC); format: cell-based; conditions: Micrococcus luteus, ATCC15957, read-out: Minimum inhibiting concentration
Summary of the method: as §2

[11] = tested on: Neisseria gonorrhoeae ATCC 19424 LRP 214; assay: Bacteriostatic power in solid medium (MIC); format: cell-based; conditions: Neisseria gonorrhoeae, ATCC19424, read-out: Minimum inhibiting concentration
Summary of the method: as §2

[12] = tested on: Haemophilus influenzae ATCC 19418 LRP 213; assay: Bacteriostatic power in solid medium (MIC); format: cell-based; conditions: Haemophilus influenzae, ATCC19418, read-out: Minimum inhibiting concentration
Summary of the method: as §2

[13] = tested on: Proteus vulgaris ATCC 6380 LRP 13; assay: Bacteriostatic power in solid medium (MIC); format: cell-based; conditions: Proteus vulgaris, ATCC6380, read-out: Minimum inhibiting concentration
Summary of the method: as §2

[14] = tested on: Micrococcus luteus ATCC 9341 LRP 6; assay: Bacteriostatic power in solid medium (MIC); format: cell-based; conditions: Micrococcus luteus, ATCC9341, read-out: Minimum inhibiting concentration
Summary of the method: as §2

[15] = tested on: Staphylococcus aureus ATCC 6538P LRP 14; assay: Bacteriostatic power in solid medium (MIC); format: cell-based; conditions: Staphylococcus aureus, ATCC6538P, read-out: Minimum inhibiting concentration
Summary of the method: as §2

[16] = tested on: Acholeplasma laidlawii ATCC 23206 LRP 204; assay: Bacteriostatic power in solid medium (MIC); format: cell-based; conditions: Acholeplasma laidlawii, ATCC23206; solid medium; read-out: Minimum inhibiting concentration
Summary of the method: as §2

[17] = tested on: Fusobacteriumnecrophroum ATCC 27852 LRP 210; assay: Bacteriostatic power in solid medium (MIC); format: cell-based; conditions: read-out: Minimum inhibiting concentration
Summary of the method: as §2

[18] = tested on: Bacteroides fragilis ATCC 23745 LRP 205; assay: Bacteriostatic power in solid medium (MIC); format: cell-based; conditions: Bacteroides fragilis, ATCC23745, read-out: Minimum inhibiting concentration
Summary of the method: as §2

[19] = tested on: Streptococcus faecalis subsp. zymogenes ATCC 12958 LRP 61; assay: Bacteriostatic power in solid medium (MIC); format: cell-based; conditions: Enterococcus faecalis, ATCC12958, read-out: Minimum inhibiting concentration
Summary of the method: as §2

Shigella sonnei LRP 5 = assay: Bacteriostatic power in solid medium (MIC); format: cell-based; conditions: LRP5, read-out: Minimum inhibiting concentration
Summary of the method: as §2

Bacillus subtilis LRP 25 = assay: Bacteriostatic power in solid medium (MIC); format: cell-based; conditions: Bacillus subtilis, LRP25, read-out: Minimum inhibiting concentration
Summary of the method: as §2

[20] = tested on: Corynebacterium diphteriae LRP 24; assay: Bacteriostatic power in solid medium (MIC); format: cell-based; conditions: Corynebacterium, LRP24, read-out: Minimum inhibiting concentration
Summary of the method: as §2

[21] = tested on: Streptococcus pneumoniae ATCC 6303 LRP 52; assay: Bacteriostatic power in solid medium (MIC); format: cell-based; conditions: Streptococcus pneumoniae, ATCC6303, read-out: Minimum inhibiting concentration
Summary of the method: as §2

[22] = tested on: Pseudomonas aeruginosa LRP 9; assay: Bacteriostatic power in solid medium (MIC); format: cell-based; conditions: Pseudomonas aeruginosa, LRP9, read-out: Minimum inhibiting concentration
Summary of the method: as §2

[23] = tested on: Streptococcus pyogenes ATCC 8668 LRP 34; assay: Bacteriostatic power in solid medium (MIC); format: cell-based; conditions: Streptococcus pyogenes, ATCC8668, read-out: Minimum inhibiting concentration
Summary of the method: as §2

Escherichia coli LRP 50 = assay: Bacteriostatic power in solid medium (MIC); format: cell-based; conditions: Escherichia coli, LRP50, read-out: Minimum inhibiting concentration
Summary of the method: as §2

[24] = tested on: Streptococcus pneumoniae ATCC 6303 LRP 35; assay: Bacteriostatic power in solid medium (MIC); format: cell-based; conditions: Streptococcus pneumoniae, ATCC6303, read-out: Minimum inhibiting concentration
Summary of the method: as §2

[25] = tested on: Staphylococcus aureus ATCC 6538P LRP 39; assay: Bacteriostatic power in solid medium (MIC); format: cell-based; conditions: Staphylococcus aureus, ATCC6538P, read-out: Minimum inhibiting concentration
Summary of the method: as §2

[26] = tested on: Streptococcus faecalis LRP 7; assay: Bacteriostatic power in solid medium (MIC); format: cell-based; conditions: Enterococcus faecalis, LRP7, read-out: Minimum inhibiting concentration
Summary of the method: as §2

[27] = tested on: Mycoplasma hominis I ATCC 14027 LRP 211; assay: Bacteriostatic power in solid medium (MIC); format: cell-based; conditions: Metamycoplasma hominis, ATCC14027, read-out: Minimum inhibiting concentration
Summary of the method: as §2

[28] = Stability in acidic environment at 25° C. (half-life of initial microbiological activity); format: physicochemical; conditions: aqueous solution
Procedure: Stability in acidic environnment at 25° C. of the novel
Note: t 1/2 represents the time for reducing to one half the initial powe
of the antibiotic determined by microbiological method through diffusion
on a plate using the test stock Microccocus luteus (Sarcina lutea) ATCC

[29] = tested on: Clostridium perfrigens ATCC 3624 LRP 206; assay: microbe, parasite or virus in culture; format: cell-based; conditions: ATCC3624, solid medium, anaerobic, read-out: Minimum inhibiting concentration
Summary of the method: as §2

Salmonella typhy LRP 8 = assay: microbe, parasite or virus in culture; format: cell-based; conditions: LRP8, solid medium, read-out: Minimum inhibiting concentration
Summary of the method: as §2

[30] = tested on: Corynebacterium diphteriae LRP 24; assay: Bacteriostatic power in liquid medium (MIC); format: cell-based; conditions: Corynebacterium, LRP24, read-out: Minimum inhibiting concentration
Summary of the method: as §2

[31] = tested on: Streptococcus faecalis subs. zymogenes ATCC 12958 LRP 61; assay: Bacteriostatic power in liquid medium (MIC); format: cell-based; conditions: Enterococcus faecalis, ATCC12958, read-out: Minimum inhibiting concentration
Summary of the method: as §2

[32] = tested on: Staphylococcus aureus ATCC 6538 P LRP 39; assay: Bacteriostatic power in liquid medium (MIC); format: cell-based; conditions: Staphylococcus aureus, ATCC6538, read-out: Minimum inhibiting concentration
Summary of the method: as §2

[33] = tested on: Streptococcus pyogenes ATCC 8668 LRP 34; assay: Bacteriostatic power in liquid medium (MIC); format: cell-based; conditions: Streptococcus pyogenes, ATCC8668, read-out: Minimum inhibiting concentration
Summary of the method: as §2

[34] = tested on: Streptococcus pneumoniae ATCC 6303 LRP 35; assay: Bacteriostatic power in liquid medium (MIC); format: cell-based; conditions: Streptococcus pneumoniae, ATCC6303, read-out: Minimum inhibiting concentration
Summary of the method: as §2

[35] = Serum concentrations in the rat after oral administration; format: in vivo; conditions: rat, in vivo, po, 100 mg/kg
Procedure: administration of 100 mg/kg per os. The values, at the
several sampling times, correspond to mcg of product per ml of serum*.

CC[C@H]1OC(=O)[C@H](C)[C@@H](O[C@H]2C[C@@](C)(OC)[C@@H](O)[C@H](C)O2)[C@H](C)[C@@H](O[C@@H]2O[C@H](C)C[C@H](N(C)C)[C@H]2O)[C@](C)(O)C[C@@H](C)C(=O)[C@H](C)[C@@H](O)[C@]1(C)O [Erythromycin A, reference compound]
MBC [1]: 0.049 mg/L (≈ 0.0668 µM) | MBC [2]: 1.56 mg/L (≈ 2.13 µM) | MBC [3]: 0.39 mg/L (≈ 0.531 µM) | MBC [4]: 6.25 mg/L (≈ 8.52 µM) | MBC [5]: 0.097 mg/L (≈ 0.132 µM) | MIC [6]: 12.5 mg/L (≈ 17 µM) | MIC [7]: 25 mg/L (≈ 34.1 µM) | MIC [8]: 0.012 mg/L (≈ 0.0164 µM) | MIC [9]: 0.012 mg/L (≈ 0.0164 µM) | MIC [10]: 25 mg/L (≈ 34.1 µM) | MIC [11]: 0.049 mg/L (≈ 0.0668 µM) | MIC [12]: 3.12 mg/L (≈ 4.25 µM) | MIC [13]: 25 mg/L (≈ 34.1 µM) | MIC [14]: 0.006 mg/L (≈ 0.00818 µM) | MIC [15]: 0.049 mg/L (≈ 0.0668 µM) | MIC [16]: 0.097 mg/L (≈ 0.132 µM) | MIC [17]: 3.12 mg/L (≈ 4.25 µM) | MIC [18]: 0.195 mg/L (≈ 0.266 µM) | MIC [19]: 0.097 mg/L (≈ 0.132 µM) | MIC (Shigella sonnei LRP 5): 12.5 mg/L (≈ 17 µM) | MIC (Bacillus subtilis LRP 25): 0.049 mg/L (≈ 0.0668 µM) | MIC [20]: 0.006 mg/L (≈ 0.00818 µM) | MIC [21]: 0.012 mg/L (≈ 0.0164 µM) | MIC [22]: 25 mg/L (≈ 34.1 µM) | MIC [23]: 0.012 mg/L (≈ 0.0164 µM) | MIC (Escherichia coli LRP 50): 6.25 mg/L (≈ 8.52 µM) | MIC [24]: 0.012 mg/L (≈ 0.0164 µM) | MIC [25]: 0.049 mg/L (≈ 0.0668 µM) | MIC [26]: 0.097 mg/L (≈ 0.132 µM) | MIC [27]: 25 mg/L (≈ 34.1 µM) | half-life ([28]; pH 2): 2 min | half-life ([28]; pH 3): 6 min | MIC [29]: 1.56 mg/L (≈ 2.13 µM) | MIC (Salmonella typhy LRP 8): 12.5 mg/L (≈ 17 µM) | MIC [30]: 0.012 mg/L (≈ 0.0164 µM) | MIC [31]: 0.39 mg/L (≈ 0.531 µM) | MIC [32]: 0.097 mg/L (≈ 0.132 µM) | MIC [33]: 0.024 mg/L (≈ 0.0327 µM) | MIC [34]: 0.024 mg/L (≈ 0.0327 µM) | concentration at 2 h ([35]; 100 mg/kg per os, 2 hours): 1.14 µg/mL | concentration at 0.5 h ([35]; Serum concentration, average): 0.478 µg/mL | concentration at 1 h ([35]; Serum concentration, average): 0.534 µg/mL | concentration at 4 h ([35]; Serum concentration, average): 0.262 µg/mL | concentration at 6 h ([35]; Serum concentration, average): 0.165 µg/mL
